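Five compound concentrations were applied to cells in 96-well plates for 48 hours; endpoints were derived by simple linear interpolation of the resulting dose-response curve. GI50 = concentration required for 50% inhibition of growth. The concentration for full growth arrest is given as TGI.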

What all share (assay): NCI-60 cell line screen, 48 h
Experiment [1] relates to 786-0 renal.
Experiment [2] concerns ACHN renal.
The subject of experiment [3] is HT29 colon.
The test system of experiment [4] is IGROV1 ovarian.
Experiment [5] relates to LOX IMVI melanoma.
Experiment [6] has as its system NCI-H226 lung.
The test system of experiment [7] is OVCAR-4 ovarian.
The test system of experiment [8] is SF-268 CNS.
Experiment [9] concerns SK-MEL-28 melanoma.
Experiment [10] has as its system SNB-75 CNS.

In the case of `O=Nc1c(-c2cccc([N+](=O)[O-])c2)nc2cnccn12`, the TGI in experiment [1] came to 37.4 µM; in [2], 14.2 µM; in experiment [3], 40.1 µM; in experiment [4], 38.6 µM; in experiment [5], 28.5 µM; in experiment [6], 50.7 µM. The TGI is 41.4 µM in experiment [7], 79.4 µM in experiment [8], 50.3 µM in experiment [9] and over 100 µM in experiment [10].

With `O=C1O[C@H](C(Cl)(Cl)Cl)N2CCCC12` (stereo not given in full), the TGI in experiment [1], in [2], in [3], in experiment [4], in experiment [5] and in [6] was over 100 µM each time. Further, the TGI in experiment [7], in [8], in experiment [9] and in experiment [10] was over 100 µM throughout.

Consider `N#Cc1c2ccccc2c2n1-c1ccccc1OC(c1ccccc1)C2=O` (stereo not given), for which the GI50 was 4.91 µM in experiment [1]; 3.73 µM in experiment [2]; 4.1 µM in experiment [3]; 4.37 µM in experiment [4]; 2.45 µM in [5]; 3.09 µM in [6]. The GI50 in experiment [7] is 2.43 µM; in experiment [8], 3.73 µM; in [9], 8.67 µM; in experiment [10], 2.23 µM. The TGI was 23 µM in experiment [1]; over 100 µM in [2]; 14 µM in experiment [3]; 19.2 µM in [4]; 6.82 µM in experiment [5]; 11.7 µM in experiment [6]. Moreover, the TGI in [7] was 8.44 µM; in experiment [8], 19.7 µM; in experiment [9], 27.5 µM; in experiment [10], 11.9 µM.

On to `COC(=O)Nc1nc2ccc(Oc3ccc(NC(=O)Nc4cccc(Br)c4)cc3)cc2[nH]1`, for which the GI50 in experiment [1] is 3.9 µM; in experiment [2] it was 5.53 µM; in [3], 0.7 µM; in experiment [4], 3.69 µM; in experiment [5], 2.32 µM; in experiment [6], 7.59 µM. Also, the GI50 in [7] was 3.39 µM; in experiment [8] it was 3.98 µM; in [9] it was 2.53 µM; in experiment [10], 0.781 µM. For the same molecule, the TGI was over 24.1 µM in experiment [1]; over 25 µM in experiment [2]; 3.28 µM in experiment [3]; 11.8 µM in [4]; over 11.9 µM in [5]; over 25 µM in experiment [6]. Moreover, the TGI in [7] is 7.42 µM; in [8], over 25 µM; in [9] it was 7.7 µM; in [10] it was 6.13 µM.

Take `OCc1cccc(-c2ccc3ncc(-c4nc(NC5CC5)ncc4F)n3c2)c1`: the GI50 in experiment [1] was 0.347 µM; in experiment [2] it was 0.134 µM; in experiment [3], 0.329 µM; in experiment [4], 0.227 µM; in experiment [5], 0.118 µM; in experiment [6], 0.301 µM. For the same molecule, the GI50 in experiment [7] was 0.342 µM; in experiment [8], 0.275 µM; in [9], 0.29 µM; in experiment [10] it was 0.199 µM. Moreover, the TGI was 3.03 µM in experiment [1]; 1.24 µM in [2]; over 100 µM in experiment [3]; 1.32 µM in experiment [4]; 1.21 µM in experiment [5]; 1.47 µM in experiment [6]. Moreover, the TGI in [7] is 1.77 µM; in [8], 0.801 µM; in experiment [9], 0.998 µM; in [10] it was 0.453 µM.

Consider `CCc1ccc(-c2ccc(=O)n(-c3ccc(S(N)(=O)=O)cc3)n2)cc1`, for which the GI50 in experiment [1] is 11.7 µM; in experiment [2], over 32.4 µM; in experiment [3], 0.484 µM; in experiment [4], 3.32 µM; in experiment [5], 11.7 µM; in experiment [6] it was 21.1 µM. Also, the GI50 in [7] was over 100 µM; in experiment [8], 9.06 µM; in experiment [9], 6.73 µM; in experiment [10], 2.96 µM. Also, the TGI was over 79.8 µM in experiment [1]; over 100 µM in [2]; over 100 µM in experiment [3]; over 77.6 µM in experiment [4]; over 100 µM in experiment [5]; over 100 µM in experiment [6]. The TGI in [7] was over 100 µM; in experiment [8], over 69.3 µM; in experiment [9], over 100 µM; in [10], 28 µM.

For `Cc1[nH]c(C(=O)Nc2ccc(C(=O)N3CCNCC3)cc2OC(C)C)c(Cl)c1Cl`, the GI50 in [1] is 1.63 µM; in experiment [2] it was 1.68 µM; in experiment [3] it was 1.76 µM; in [4], 1.58 µM; in [5], 1.77 µM; in experiment [6] it was 2.5 µM. The GI50 was 3.57 µM in [7], 1.85 µM in [8], 1.78 µM in experiment [9] and 3.31 µM in [10]. The TGI in [1] worked out at 3.18 µM; in experiment [2] it was 3.07 µM; in experiment [3], 3.26 µM; in experiment [4], 3.49 µM; in [5], 3.25 µM; in [6], 5.79 µM. Also, the TGI was found to be 11.8 µM in experiment [7], 3.81 µM in experiment [8], 3.24 µM in experiment [9] and 14.1 µM in experiment [10].

Take `COc1ccc(Nc2ncccc2/C=C/C(=O)c2cc(OC)c(OC)c(OC)c2)cc1`: the GI50 in experiment [1] was 1.69 µM; in experiment [2] it was 1.55 µM; in [3], 1.6 µM; in experiment [4], 2 µM; in [5], 1.23 µM; in experiment [6], 1.37 µM. Further, the GI50 in experiment [7] was 1.62 µM; in experiment [8], 1.77 µM; in [9], 1.37 µM; in experiment [10] it was 1.15 µM. The TGI in experiment [1] was 3.22 µM; in [2], 2.96 µM; in [3] it was 3.16 µM; in experiment [4], 5.31 µM; in [5], 2.48 µM; in experiment [6], 2.81 µM. For the same molecule, the TGI worked out at 3.47 µM in experiment [7], 4.08 µM in experiment [8], 2.66 µM in [9] and 2.37 µM in [10].

(Values after PubChem BioAssay (NCI).)
